# In patent US10988478B1, “Pyrazolo[1,5a]pyrimidine derivatives as IRAK4 modulators” (Genentech, Inc., priority 2015, dated 2021):
# Molecular target: human IRAK4 (Homo sapiens (Human), UniProt Q9NWZ3)
# Test: IRAK4 kinase inhibition, Transcreener fluorescence polarization ADP assay
# Format: biochemical
# Settings: recombinant full-length His6-IRAK4; 125 uM ATP; 90 min; Ki computed using ATP Km 642 uM
# Protocol: Compounds were assayed for inhibition of human IRAK4 and IRAK1 catalytic activity using recombinant enzyme produced from insect cells. Full-length IRAK4 protein, carrying an N-terminal His6-Tag, was obtained from Life Technologies (Carlsbad, Calif., USA). The IRAK1 construct was produced internally and was comprised of IRAK1 residues Arg194 to Ser712, preceded by an NH2-terminal His6 tag and the coding sequence for glutathione-S-transferase.
# Chain of human IRAK4 (Q9NWZ3 whole entry): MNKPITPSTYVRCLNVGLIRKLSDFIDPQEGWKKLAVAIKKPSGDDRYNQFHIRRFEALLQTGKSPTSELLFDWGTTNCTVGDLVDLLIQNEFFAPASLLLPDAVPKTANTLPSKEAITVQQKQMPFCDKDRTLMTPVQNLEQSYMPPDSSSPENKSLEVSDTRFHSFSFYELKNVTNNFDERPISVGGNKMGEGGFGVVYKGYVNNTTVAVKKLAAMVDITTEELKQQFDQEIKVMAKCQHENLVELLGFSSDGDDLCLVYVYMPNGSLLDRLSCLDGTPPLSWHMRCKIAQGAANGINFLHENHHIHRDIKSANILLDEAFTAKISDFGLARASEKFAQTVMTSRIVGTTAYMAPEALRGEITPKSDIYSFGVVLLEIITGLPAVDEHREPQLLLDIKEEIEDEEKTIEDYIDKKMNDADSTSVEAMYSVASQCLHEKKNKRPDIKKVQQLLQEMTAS
row,Structure (SMILES),Ki
1,"CC1(C)Cc2cc(NC(=O)c3cnn4cccnc34)c(OC[C@H]3CCNC(=O)C3)cc2O1 [Example 306, (S)-N-(2,2-Dimethyl-6-((2-oxopiperidin-4-yl)methoxy)-2,3-dihydrobenzofuran-5-yl)pyrazolo[1,5-α]pyrimidine-3-carboxamide]",52 nM
2,"O=C(Nc1cc2c(cc1N1CCOCC1)C(=O)N(CC(F)F)C2)c1cnn2cccnc12 [Example 174, N-[2-(2,2-difluoroethyl)-6-morpholino-1-oxo-isoindolin-5-yl]pyrazolo[1,5-a]pyrimidine-3-carboxamide]",20 nM
3,"O=C(Nc1cc2c(cc1N1CCOCC1)O[C@@](CO)(C(F)(F)F)C2)c1cnn2cccnc12 [Example 154, (S)—N-(2-(hydroxymethyl)-6-morpholino-2-(trifluoromethyl)-2,3-dihydrobenzofuran-5-yl)pyrazolo[1,5-a]pyrimidine-3-carboxamide]",9.3 nM
4,"O=C(Nc1cc2c(cc1N1CCOCC1)C(=O)N(C1CCOC1)C2)c1cnn2cccnc12 (single isomer, unassigned) [Example 276, N-(6-morpholino-1-oxo-2-(tetrahydrofuran-3-yl)isoindolin-5-yl)pyrazolo[1,5-a]pyrimidine-3-carboxamide]",26 nM
5,"NC(=O)CN1CCN(c2cc3c(cc2NC(=O)c2cnn4cccnc24)CN(C2CCOCC2)C3=O)CC1 [Example 177, N-[6-[4-(2-amino-2-oxo-ethyl)piperazin-1-yl]-1-oxo-2-tetrahydropyran-4-yl-isoindolin-5-yl]pyrazolo[1,5-a]pyrimidine-3-carboxamide]",2 nM
6,"O=C(Nc1cc2c(cc1N1CCOCC1)C(=O)N(C[C@H]1CCOC1)C2)c1cnn2cccnc12 [Example 556, N-[6-morpholino-1-oxo-2-[[(3R)-tetrahydrofuran-3-yl]methyl]isoindolin-5-yl]pyrazolo[1,5-a]pyrimidine-3-carboxamide]",4.5 nM
7,"CC(=O)N1CCC2(CC1)Cc1cc(NC(=O)c3cnn4cccnc34)c(N3CCN(CC(N)=O)CC3)cc1O2 [Example 374, N-(1′-Acetyl-6-(4-(2-amino-2-oxoethyl)piperazin-1-yl)-3H-spiro[benzofuran-2,4′-piperidin]-5-yl)pyrazolo[1,5-a]pyrimidine-3-carboxamide]",2 nM
8,"CC1(C)Cc2cc(NC(=O)c3cnn4cccnc34)c(N3CC[C@H](CO)C3)cc2O1 [Example 13, (S)—N-(6-(3-(hydroxymethyl)pyrrolidin-1-yl)-2,2-dimethyl-2,3-dihydrobenzofuran-5-yl)pyrazolo[1,5-a]pyrimidine-3-carboxamide]",6.7 nM
9,"CC1(C)Cc2cc(NC(=O)c3cnn4cccnc34)c(N3CCN(CC(F)F)CC3)cc2O1 [Example 8, N-[6-[4-(2,2-Difluoroethyl)piperazin-1-yl]-2,2-dimethyl-3H-benzofuran-5-yl]pyrazolo[1,5-a]pyrimidine-3-carboxamide]",2.3 nM
10,"Cc1nnc(CN2CCN(c3cc4c(cc3NC(=O)c3cnn5cccnc35)CC(C)(C)O4)CC2)o1 [Example 463, N-(2,2-dimethyl-6-(4-((5-methyl-1,3,4-oxadiazol-2-yl)methyl)piperazin-1-yl)-2,3-dihydrobenzofuran-5-yl)pyrazolo[1,5-a]pyrimidine-3-carboxamide]",25 nM
11,"O=C(Nc1cc2c(cc1N1CCOCC1)OCCCN2)c1cnn2cccnc12 [Example 35, N-(8-Morpholino-2,3,4,5-tetrahydrobenzo[b][1,4]oxazepin-7-yl)pyrazolo[1,5-a]pyrimidine-3-carboxamide]",690 nM
12,"CC(C)(O)CN1CCN(c2cc3c(cc2NC(=O)c2cnn4cccnc24)CC(C)(CO)O3)CC1 (stereo not shown) [Example 151, N-(6-(4-(2-Hydroxy-2-methylpropyl)piperazin-1-yl)-2-(hydroxymethyl)-2-methyl-2,3-dihydrobenzofuran-5-yl)pyrazolo[1,5-a]pyrimidine-3-carboxamide]",72 nM
13,"C[C@]1(CC#N)COc2cc(N3CCOCC3)c(NC(=O)c3cnn4cccnc34)cc2C1 [Example 520, N-[(3S)-3-(cyanomethyl)-3-methyl-7-morpholino-chroman-6-yl]pyrazolo[1,5-a]pyrimidine-3-carboxamide]",1.1 nM
14,"O=C(Nc1cc2c(cc1N1CCC(F)(CO)CC1)O[C@@](CO)(C(F)(F)F)C2)c1cnn2cccnc12 [Example 319, (S)-N-(6-(4-fluoro-4-(hydroxymethyl)piperidin-1-yl)-2-(hydroxymethyl)-2-(trifluoromethyl)-2,3-dihydrobenzofuran-5-yl)pyrazolo[1,5-a]pyrimidine-3-carboxamide]",3.1 nM
15,"CC(C)(O)[C@H](F)CN1Cc2cc(NC(=O)c3cnn4cccnc34)c(N3CCOCC3)cc2S1(=O)=O [Example 289, N-[2-[(2R)-2-Fluoro-3-hydroxy-3-methyl-butyl]-6-morpholino-1,1-dioxo-3H-1,2-benzothiazol-5-yl]pyrazolo[1,5-a]pyrimidine-3-carboxamide]",8 nM
16,"CC(C)N1Cc2cc(NC(=O)c3cnn4cc(C(N)=O)cnc34)c(N3CCOCC3)cc2C1=O [Example 486, N3-(2-isopropyl-6-morpholino-1-oxo-isoindolin-5-yl)pyrazolo[1,5-a]pyrimidine-3,6-dicarboxamide]",37 nM

row,Structure (SMILES),Ki
1,"CC1(C)Cc2cc(NC(=O)c3cnn4cccnc34)c(N3CC4C(CO)C4C3)cc2O1 (stereo not shown) [Example 215, N-(6-(6-(hydroxymethyl)-3-azabicyclo[3.1.0]hexan-3-yl)-2,2-azabicyclo[3.1.0]dimethyl-2,3-dihydrobenzofuran-5-yl)pyrazolo[1,5-a]pyrimidine-3-carboxamide]",5.4 nM
2,"CN1CC[C@@H](N2Cc3cc(NC(=O)c4cnn5cccnc45)c(N4CCOCC4)cc3C2=O)C1=O [Example 553, N-[2-[(3R)-1-methyl-2-oxo-pyrrolidin-3-yl]-6-morpholino-1-oxo-isoindolin-5-yl]pyrazolo[1,5-a]pyrimidine-3-carboxamide]",58 nM
3,"Cc1cnc2c(C(=O)Nc3cc4c(cc3N3CCC(CO)CC3)OCCN4)cnn2c1 [Example 7, N-(7-(4-(Hydroxymethyl)piperidin-1-yl)-3,4-dihydro-2H-benzo[b][1,4]oxazin-6-yl)-6-methylpyrazolo[1,5-a]pyrimidine-3-carboxamide]",3.9 nM
4,"CC1(C)Cc2cc(NC(=O)c3cnn4cccnc34)c(N3CCN(Cc4c[nH]cn4)CC3)cc2O1 [Example 509, N-(6-(4-((1H-imidazol-4-yl)methyl)piperazin-1-yl)-2,2-dimethyl-2,3-dihydrobenzofuran-5-yl)pyrazolo[1,5-a]pyrimidine-3-carboxamide]",1.1 nM
5,"Cc1cnc2c(C(=O)Nc3cc4c(cc3N3CCC(F)(CO)CC3)OC(C)(CO)C4)cnn2c1 (stereo not drawn) [Example 328, N-(6-(4-Fluoro-4-(hydroxymethyl)-piperidin-1-yl)-2-(hydroxymethyl)-2-methyl-2,3-dihydrobenzofuran-5-yl)-6-methylpyrazolo[1,5-α]pyrimidine-3-carboxamide]",2.7 nM
6,"N[C@H]1CO[C@@H](CN2Cc3cc(NC(=O)c4cnn5cccnc45)c(N4CCOCC4)cc3C2=O)OC1 [Example 449, N-(2-(((2R,5R)-5-amino-1,3-dioxan-2-yl)methyl)-6-morpholino-1-oxoisoindolin-5-yl)pyrazolo[1,5-a]pyrimidine-3-carboxamide]",80 nM
7,"CC1(C)Cc2cc(NC(=O)c3cnn4cccnc34)c(N3CCN(Cc4ccn[nH]4)CC3)cc2O1 [Example 505, N-(6-(4-((1H-pyrazol-5-yl)methyl)piperazin-1-yl)-2,2-dimethyl-2,3-dihydrobenzofuran-5-yl)pyrazolo[1,5-a]pyrimidine-3-carboxamide]",5.2 nM
8,"C[C@@]1(C(F)(F)F)Cc2cc(NC(=O)c3cnn4cccnc34)c(N3CCOCC3)cc2O1 [Example 77, (S)—N-(2-methyl-6-morpholino-2-(trifluoromethyl)-2,3-dihydrobenzofuran-5-yl)pyrazolo[1,5-a]pyrimidine-3-carboxamide]",13 nM
9,"CC1(C)Cc2cc(NC(=O)c3cnn4cccnc34)c(-c3ccc(=O)[nH]c3)cc2O1 [Example 113, N-[2,2-Dimethyl-6-(6-oxo-1H-pyridin-3-yl)-3H-benzofuran-5-yl]pyrazolo[1,5-a]pyrimidine-3-carboxamide]",320 nM
10,"CC1(C)Cc2cc(NC(=O)c3cnn4cccnc34)c(N3CCC(n4ccnc4)CC3)cc2O1 [Example 206, N-(6-(4-(1H-imidazol-1-yl)piperidin-1-yl)-2,2-dimethyl-2,3-dihydrobenzofuran-5-yl)pyrazolo[1,5-a]pyrimidine-3-carboxamide]",3.4 nM
11,"CC(C)(O)C1(C)Cc2cc(NC(=O)c3cnn4cccnc34)c(N3CCC(CO)CC3)cc2O1 (stereo not shown) [Example 363, N-(6-(4-(hydroxymethyl)piperidin-1-yl)-2-(2-hydroxypropan-2-yl)-2-methyl-2,3-dihydrobenzofuran-5-yl)pyrazolo[1,5-a]pyrimidine-3-carboxamide]",5.3 nM
12,"CC1(C)Cc2cc(NC(=O)c3cnn4cccnc34)c(N3CCC4(CCOC4)C3)cc2O1 (stereo not shown) [Example 108, N-(2,2-dimethyl-6-(2-oxa-7-azaspiro[4.4]nonan-7-yl)-2,3-dihydrobenzofuran-5-yl)pyrazolo[1,5-a]pyrimidine-3-carboxamide]",79 nM
13,"CN(C)c1cc2c(cc1NC(=O)c1cnn3cccnc13)CC(C)(C)O2 [Example 537, N-(6-(dimethylamino)-2,2-dimethyl-2,3-dihydrobenzofuran-5-yl)pyrazolo[1,5-a]pyrimidine-3-carboxamide]",12 nM
14,"CC1(CO)CCc2cc(NC(=O)c3cnn4cccnc34)c(N3CCOCC3)cc2O1 (stereo not shown) [Example 141, N-(2-(Hydroxymethyl)-2-methyl-7-morpholinochroman-6-yl)pyrazolo[1,5-a]pyrimidine-3-carboxamide]",16 nM
15,"O=C(Nc1cc2c(cc1N1CCOCC1)OCCN2)c1cnn2cccnc12 [Example 9, N-(7-Morpholino-3,4-dihydro-2H-benzo[b][1,4]oxazin-6-yl)pyrazolo[1,5-a]pyrimidine-3-carboxamide]",98 nM
